The source made the active and inactive calls. The rule behind the calls is not given here.
Test system: MM1.S
Test: Antiproliferative activity against human MM1.S cells assessed as inhibition of cell growth incubated for 72 hrs by celltiter-glo assay
Format: functional, cell-based

Structure (SMILES) | IC50 | Activity
Cc1ccc(/C(=C\C(N)=O)c2cnn(-c3cc(C(F)(F)F)cc(C(F)(F)F)c3)c2)cn1 |  | inactive
NC(=O)/C(=C/n1ccc(-c2cc(C(F)(F)F)cc(C(F)(F)F)c2)n1)c1cncnc1 | 1.21 µM | 
NC(=O)/C(=C/n1ccc(-c2cc(C(F)(F)F)cc(C(F)(F)F)c2)n1)c1ccc(C(F)(F)F)nc1 | 1.92 µM | 
N#Cc1ccc(/C(=C\n2cnc(-c3cc(C(F)(F)F)cc(C(F)(F)F)c3)n2)C(N)=O)cn1 | 0.176 µM | 

Now from value to compound, other results behind:

IC50 | Structure (SMILES) | Activity
0.166 µM | CONC(=O)/C(=C/n1cnc(-c2cc(C(F)(F)F)cc(C(F)(F)F)c2)n1)c1ccc(OC)nc1 | 
0.485 µM | CONC(=O)/C(=C/n1cnc(-c2cc(C(F)(F)F)cc(C(F)(F)F)c2)n1)c1cnc(Cl)nc1 | 
1.47 µM | NC(=O)/C(=C/n1cnc(-c2cc(C(F)(F)F)cc(C(F)(F)F)c2)n1)c1ccc(F)nc1 | 
0.244 µM | CONC(=O)/C(=C/n1cnc(-c2cc(C(F)(F)F)cc(C(F)(F)F)c2)n1)c1cnc(OC)nc1 | 
